Conditions: 323.15 K, Liquid, Vibrating tube method

CCCCC(=O)OCC(COC(=O)CCCC)(COC(=O)CCCC)COC(=O)CCCC [pentaerythritol tetrapentanoate]
Conditions	mass density [kg/m3]
25366 kPa	1011.6
25395 kPa	1011.5
25431 kPa	1011.6
25460 kPa	1011.6
25495 kPa	1011.6
25525 kPa	1011.6
25555 kPa	1011.6
25590 kPa	1011.6
25620 kPa	1011.7
25651 kPa	1011.7
25684 kPa	1011.7
25714 kPa	1011.8
25750 kPa	1011.8
25780 kPa	1011.9
25817 kPa	1011.9
25847 kPa	1011.7
25878 kPa	1011.8
25908 kPa	1012
25945 kPa	1011.9
25976 kPa	1011.9
26007 kPa	1011.9
26044 kPa	1011.9
26076 kPa	1011.8
26107 kPa	1012
26145 kPa	1012
26176 kPa	1012
26208 kPa	1012.1
26245 kPa	1012.1
26277 kPa	1012
26308 kPa	1012.1
26346 kPa	1012
26378 kPa	1012.2
26410 kPa	1012.2
26448 kPa	1012.2
26480 kPa	1012.3
26512 kPa	1012.2
26551 kPa	1012.2
26584 kPa	1012.3
26617 kPa	1012.3
26656 kPa	1012.3
26689 kPa	1012.2
26722 kPa	1012.4
26754 kPa	1012.4
26794 kPa	1012.3
26826 kPa	1012.3
26860 kPa	1012.3
26900 kPa	1012.5
26933 kPa	1012.5
26967 kPa	1012.4
27007 kPa	1012.6
27041 kPa	1012.5
27075 kPa	1012.5
27109 kPa	1012.6
27150 kPa	1012.7
27183 kPa	1012.7
27218 kPa	1012.7
27258 kPa	1012.7
27292 kPa	1012.6
27327 kPa	1012.6
27362 kPa	1012.7
27404 kPa	1012.7
27440 kPa	1012.7
27475 kPa	1012.8
27510 kPa	1012.9
27552 kPa	1012.9
27586 kPa	1012.9
27628 kPa	1012.9
27663 kPa	1012.9
27698 kPa	1012.9
27733 kPa	1012.9
27776 kPa	1013.1
27811 kPa	1013.1
27847 kPa	1013
27890 kPa	1013.1
27926 kPa	1013.1
27968 kPa	1013.1
28005 kPa	1013.1
28041 kPa	1013.1
28077 kPa	1013.2
28122 kPa	1013.2
28158 kPa	1013.1
28195 kPa	1013.3
28238 kPa	1013.2
28276 kPa	1013.3
28313 kPa	1013.4
28357 kPa	1013.2
28396 kPa	1013.3
28435 kPa	1013.4
28472 kPa	1013.4
28511 kPa	1013.4
28557 kPa	1013.5
28595 kPa	1013.5
28633 kPa	1013.5
28672 kPa	1013.6
28719 kPa	1013.5
28798 kPa	1013.6
28964 kPa	1013.6
28998 kPa	1013.7
29025 kPa	1013.8
29053 kPa	1013.7
29087 kPa	1013.7
29115 kPa	1013.8
29143 kPa	1013.8
29325 kPa	1013.9
29354 kPa	1014
29388 kPa	1013.9
29418 kPa	1014
29452 kPa	1014
29480 kPa	1013.9
29509 kPa	1014.1
29544 kPa	1014
29573 kPa	1014
29602 kPa	1014.1
29638 kPa	1014.2
29667 kPa	1014.1
29697 kPa	1014.1
29733 kPa	1014.2
29762 kPa	1014.2
29792 kPa	1014.2
29822 kPa	1014.1
29857 kPa	1014.2
29886 kPa	1014.2
29917 kPa	1014.3
29952 kPa	1014.3
29982 kPa	1014.4
30012 kPa	1014.3
30049 kPa	1014.4
30078 kPa	1014.4
30109 kPa	1014.5
30146 kPa	1014.5
30177 kPa	1014.4
30208 kPa	1014.5
30238 kPa	1014.4
30275 kPa	1014.4
30306 kPa	1014.5
30342 kPa	1014.6
30373 kPa	1014.5
30404 kPa	1014.6
30435 kPa	1014.6
30472 kPa	1014.7
30504 kPa	1014.6
30535 kPa	1014.7
30573 kPa	1014.7
30604 kPa	1014.7
30641 kPa	1014.6
30673 kPa	1014.7
30705 kPa	1014.8
30742 kPa	1014.7
30774 kPa	1014.9
30806 kPa	1014.9
30838 kPa	1014.8
30876 kPa	1014.9
30908 kPa	1014.9
30947 kPa	1014.9
30979 kPa	1014.9
31012 kPa	1014.9
31051 kPa	1014.9
31084 kPa	1015
31116 kPa	1015.1
31149 kPa	1015

Reference: the NIST ThermoML archive (doi:10.1021/je060271a)
